US9642897B2, “Treatment of bone diseases” (THE UNIVERSITY OF SYDNEY, priority 2011, dated 2017)
Entries after “also recorded” stand apart in the source; their conditions may differ.

Tests used:
RUNX2, OCN and OPN = assay: Osteogenic gene expression (RUNX2, OCN, OPN) in differentiating MSC; assay type: cell-based, human; conditions: for relative gene expression of RUNX2, OCN and OPN: differentiating MSC
Experimental: (§1) Subsequently, the effect of chemical inhibition/stimulation of the intermediate and end products of kynurenine activation on osteogenic differentiating MSC was then characterised.
These compounds were added to the MSC media on day one of differentiation. […] Media was changed every three days. […]

[1] = tested on: gut-derived serotonin (GDS); conditions: Yadav et al. (2010); cited from earlier work
[2] = tested on: bone marrow stromal cells (BMSC) from IDO-1 KO and WT mice; assay: Osteogenic differentiation of BMSC from IDO-1 KO and WT mice (alizarin red); assay type: cell-based; conditions: vs vehicle
Experimental: One side tibiae from 9-month-old IDO-1^−/− and IDO-1^+/+ mice (n=6 per group) were flushed using a 21-gauge needle attached to a 10 ml syringe filled with Dulbecco's modified Eagle's medium (DME) (GIBCO BRL, Gaithersburg, Md., USA). The bone marrow cells were filtered through a cell strainer with a 70-micron nylon mesh (BD Bioscience, Bedford, Mass., USA) and plated in 10 cm^2 tissue culture dishes. The cells were incubated in growth medium at 37° C. with 5% humidified CO2 and isolated by their adherence to tissue culture plastic. Medium was aspirated and replaced with fresh medium every 2 to 3 days to remove non-adherent cells. The adherent MSC were grown to confluency for about 7 days and defined as MSC at passage 0, harvested with 0.25% trypsin and 1 mM EDTA for 5 min at 37° C., diluted 1:3 in growth medium, plated and grown to confluency for further expansion. After 2nd and 3rd passages, MSC were used for subsequent experiments.
To induce differentiation, a total of 10^4 cells were diluted in osteogenic medium and plated in 24 dishes per group in the presence or absence of either quinolinic or picolinic acid. Media was aspirated and replaced with fresh osteogenic medium every 3 days. At 21 days, medium was removed and cultures were fixed in 10% v/v formol/saline solution for 5 min. Cultures were stained with Alizarin Red, which was then extracted and quantified at 570 nm.

[3] = tested on: mesenchymal stem cells (MSC); assay: Mineralization (alizarin red staining) of osteogenic differentiating MSC; assay type: cell-based, human
Experimental: (§2) Human mesenchymal stem cells (MSC) (BioWhittaker, Walkersville, Md., USA) were plated at a density of 5×10^5 cells per well in 150 cm^2 dishes containing MSC growth medium (GM) (BioWhittaker, Walkersville, Md., USA) with 10% fetal calf serum (FCS) and incubated at 37° C. After the cells reached 60% confluence, media was replaced with either GM or osteoblastogenesis induction media (OIM) (prepared with MSCGM, 10% FCS, […] dexamethasone, 10 mmol/L β glycerol phosphate and 50 μg/mL ascorbic acid) for 21 days. Media was changed every three days. Media obtained at the beginning of the 1st, 2nd and 3rd wk of differentiation as well as conditioned media were collected for measurement of IFNγ. Concentrations of IFNγ in the conditioned media were measured from both GM and OM treated cells using Human […] DuoSet ELISA Development Kit (R&D Systems, Minneapolis, Mich., USA). To compare between the osteogenic and the immune effect of IFNγ, Jurkat cells and human T lymphocytes were plated at a density of 5×10^5 cells per well in 150 cm^2 dishes containing RPMI media.
as §1
These compounds were added to the MSC media on day one of differentiation. Cells were treated for […]. Media was changed every three days. After three weeks of treatment, osteoblastogenesis and changes in osteogenic genes were quantified as described above.

IDO-1 gene expression [4] = assay: IDO-1 gene expression in osteogenic differentiating MSC (cDNA array / real time PCR); assay type: cell-based, human; conditions: for increase in IDO-1 expression: differentiating osteoblasts
Experimental: as §2
Cells were treated with either IFNγ (100 nM) or vehicle for two weeks. At week 2, total RNA was extracted from treated MSC, Jurkat T lymphocytes using an Easy-Kit mini prep (Qiagen, Valencia, Calif., USA). Generation of cDNA, fluorescent labeling, hybridization to the gene chip and data analysis were performed by the Genomics Laboratory at Ramacciotti Institute (Sydney, Australia). 12,000 human genes were examined and expressed sequences tags (ESTs) on the array Human Genome U95A (Affymetrix, Inc. Santa Clara, Calif., USA) and analyzed the results using the MicroDB™ Software (Affymetrix, Inc. Santa Clara, Calif., USA). Expression values of the differentiated and non-differentiated MSC and between MSC vs. Jurkat cells and T lymphocytes were compared using Student's t test. Genes with significant changes were then grouped depending on their known function. The biological function of each gene product was obtained from literature searches in medical databases. This experiment was repeated twice and significant changes in gene expression determined by the method of biological duplicates.
A cDNA gene array analysis was performed in MSC induced to differentiate into osteoblasts using osteogenic media for 7 days while being treated with an anabolic dose of IFNγ (100 nM) in vitro. A comparison of was made of cDNA data obtained from differentiating MSC, human primary T-lymphocytes and Jurkat cells either untreated or treated with IFNγ (FIG. 1). The aims of this approach were not only to characterise the osteogenic effect of IFNγ on osteogenic differentiating MSC, but also to compare the osteogenic vs. the immunogenic profile of IFNγ. […]

[5] = rats; cited from earlier work
TPH-1 gene expression = TPH-1 gene expression in IFNγ-treated immune cells (Jurkat cells, T lymphocytes); assay type: cell-based, human; conditions: immune cells treated with IFNγ
Experimental: as §2, with “To compare between the osteogenic and the immune effect of IFNγ, Jurkat cells and human T lymphocytes were plated at a density of 5×10^5 cells per well in 150 cm^2 dishes containing RPMI media.” left out
(§3) Cells were treated with either IFNγ (100 nM) or vehicle for two weeks. […] 12,000 human genes were examined and expressed sequences tags (ESTs) on the array Human Genome U95A (Affymetrix, Inc. Santa Clara, Calif., USA) and analyzed the results using the MicroDB™ Software (Affymetrix, Inc. Santa Clara, Calif., USA). […] This experiment was repeated twice and significant changes in gene expression determined by the method of biological duplicates. […]

TPH-1 = assay: Immunohistochemistry of TPH-1 in gut and bone of IFNγ-treated mice; assay type: in vivo, C57BL/6 mice; conditions: IFNγ 2,000 IU, 3 times a week for 6 weeks
Experimental: (§4) Animals were purchased from Jackson Laboratories (Bar Harbor, Me., USA). 8-week-old virgin female C57BL/6 mice (Charles River Laboratories, Quebec, Canada) were used to study the effect of exogenous administration of IFN-γ on bone and gut expression of IDO-1 and TPH-1. Bilateral ovariectomies (OVX) were performed under general anesthesia. Another group of animals was sham-operated (SHAM), in which ovaries were exteriorized but replaced intact. Two weeks after surgery, mice (OVX and SHAM) received intraperitoneal injections of 2000 IU of IFN-γ (R&D Systems, Inc., Minneapolis, Minn., USA) or vehicle (PBS) three times weekly for a total of 6 weeks. Mice were housed in cages in a limited-access room. Animal husbandry adhered to Canadian Council on Animal Care Standards, and all protocols were approved by the McGill University Health Center Animal Care Utilization Committee. […]
(§5) For immunohistochemistry, gut and bone sections were incubated overnight at 4° C. with a goat polyclonal antibody IgG against either IDO-1 or TPH-1 (Santacruz Biotechnology Inc. Santa Cruz Calif., USA), Primary antibody was detected by incubation with an anti-goat IgG secondary antibody conjugated with horseradish peroxidase (1:300 in BSA 1%, Sigma-Aldrich, St. Louis, Mo., USA)]. […] Photographs were taken under an Olympus fluorescence microscope controlled by an IPLab system. […]

gut derived serotonin = assay: Gut derived serotonin (GDS) in gut of IFNγ-treated mice; assay type: in vivo, C57BL/6 mice; conditions: IFNγ 2,000 IU, 3 times a week for 6 weeks
Experimental: Animals were purchased from Jackson Laboratories (Bar Harbor, Me., USA). 8-week-old virgin female C57BL/6 mice (Charles River Laboratories, Quebec, Canada) were used to study the effect of exogenous administration of IFN-γ on bone and gut expression of IDO-1 and TPH-1. Bilateral ovariectomies (OVX) were performed under general anesthesia. Another group of animals was sham-operated (SHAM), in which ovaries were exteriorized but replaced intact. Two weeks after surgery, mice (OVX and SHAM) received intraperitoneal injections of 2000 IU of IFN-γ (R&D Systems, Inc., Minneapolis, Minn., USA) or vehicle (PBS) three times weekly for a total of 6 weeks. Mice were housed in cages in a limited-access room. Animal husbandry adhered to Canadian Council on Animal Care Standards, and all protocols were approved by the McGill University Health Center Animal Care Utilization Committee.
One side femur and proximal gut from each animal in each group was removed at the time of euthanization. Bone was fixed in 70% ethanol, dehydrated, and embedded undecalcified in methyl methacrylate (J-T Baker, Phillipsburg, N.J., USA). At 50-μm intervals, longitudinal sections 5- and 8-μm thick were cut using a Polycut-E microtome (Reichert-Jung Leica, Heerbrugg, Switzerland). Gut was fixed and embedded in paraffin for future analysis. Gut sections were obtained as described above.

serotonin = assay: Serotonin concentrations in MSC supernatants (ELISA); assay type: cell-based, human; conditions: IFNγ treated vs untreated cells
Source text: In addition, there was no difference in the serotonin concentrations (measured using ELISA) in the supernatants obtained from osteoblastogenesis induction media (OIM)- and IFNγ-treated vs. untreated cells. […] This effect is independent of serotonin concentration in the media.

IDO-1 [6] = assay: Immunohistochemistry of IDO-1 in gut and bone of IFNγ-treated mice; assay type: in vivo, C57BL/6 mice; conditions: IFNγ 2,000 IU, 3 times a week for 6 weeks
Experimental: as §4, §5

IDO-1 gene expression [7] = assay: IDO-1 gene expression in IFNγ-treated immune cells (Jurkat cells, T lymphocytes); assay type: cell-based, human; conditions: immune cells treated with IFNγ
Experimental: as §2, with “To compare between the osteogenic and the immune effect of IFNγ, Jurkat cells and human T lymphocytes were plated at a density of 5×10^5 cells per well in 150 cm^2 dishes containing RPMI media.” left out
as §3

IDO-1 [8] = assay: Kynurenine/tryptophan ratio by HPLC in differentiating MSC; assay type: cell-based, human; conditions: MSC treated with IFNγ
[9] = 1000 nM quinolinic acid, 14 days, vs untreated cells

## Nc1ccccc1C(=O)CC(N)C(=O)O [L-kynurenine, 2-amino-4-(2-aminophenyl)-4-oxo-butanoic acid, reference compound]
RUNX2, OCN and OPN
  relative gene expression of RUNX2, OCN and OPN: not

## Nc1nc(OC(c2ccc(-c3cccc(F)c3)cc2)C(F)(F)F)cc(-c2ccc(C[C@H](N)C(=O)O)cc2)n1 (stereo partly shown) [LP533401]
[1]
  bone formation / osteoporosis in OVX mice: stimulates bone formation and recues OVX mice from osteoporosis

## O=C(O)c1cccnc1C(=O)O [QA, 2,3-Pyridinedicarboxylic acid]
RUNX2, OCN and OPN; [9]
  relative expression (RE) RUNX2: 3 fold
  relative expression (RE) osteopontin: 6 fold
RUNX2, OCN and OPN
  relative gene expression of RUNX2, OCN and OPN: increased
[2]
  mineralisation (alizarin red staining): higher levels of mineralisation
[3]; MSC in OIM, 2 weeks
  osteoblastogenesis / mineralisation (alizarin red): accelerated mineralisation; also recorded: stimulate osteoblastogenesis

## CN[C@H](Cc1c[nH]c2ccccc12)C(=O)O [methyl-D-tryptophan, reference compound]
RUNX2, OCN and OPN; with IDO-1 inhibition
  osteogenic genes expression: reduced
IDO-1 gene expression [4]; day 14 of differentiation, in the presence of inhibitor, vs control
  RE of IDO-1: 0.02
[3]; inhibition of IDO-1
  mineralization measured by alizarin red: significant decrease

## CC[C@H](C)[C@H](NC(=O)[C@H](CCC(=O)O)NC(=O)[C@H](CO)NC(=O)[C@@H](NC(=O)[C@@H](N)CO)C(C)C)C(=O)N[C@@H](CCC(N)=O)C(=O)N[C@@H](CC(C)C)C(=O)N[C@@H](CCSC)C(=O)N[C@@H](Cc1cnc[nH]1)C(=O)N[C@@H](CC(N)=O)C(=O)N[C@@H](CC(C)C)C(=O)NCC(=O)N[C@@H](CCCCN)C(=O)N[C@@H](Cc1cnc[nH]1)C(=O)N[C@@H](CC(C)C)C(=O)N[C@@H](CC(N)=O)C(=O)N[C@@H](CO)C(=O)N[C@@H](CCSC)C(=O)N[C@@H](CCC(=O)O)C(=O)N[C@@H](CCCN=C(N)N)C(=O)N[C@H](C(=O)N[C@@H](CCC(=O)O)C(=O)N[C@@H](Cc1c[nH]c2ccccc12)C(=O)N[C@@H](CC(C)C)C(=O)N[C@@H](CCCN=C(N)N)C(=O)N[C@@H](CCCCN)C(=O)N[C@@H](CCCCN)C(=O)N[C@@H](CC(C)C)C(=O)N[C@@H](CCC(N)=O)C(=O)N[C@@H](CC(=O)O)C(=O)N[C@H](C(=O)N[C@@H](Cc1cnc[nH]1)C(=O)N[C@@H](CC(N)=O)C(=O)N[C@@H](Cc1ccccc1)C(=O)O)C(C)C)C(C)C [teriparatide]
[5]
  tumour growth: cause malignant tumour growth (osteogenic carcinoma)

## IFNγ: interferon gamma, stimulator of IDO-1
TPH-1 gene expression
  TPH-1 gene expression: high levels
TPH-1
  expression of TPH-1 in gut and bone: remains unaltered
Gut derived serotonin
  GDS in the gut: remains unaltered
serotonin
  serotonin concentrations in the supernatants: No changes
IDO-1 [6]
  levels of IDO-1 in gut and bone marrow: higher levels of IDO-1
IDO-1 gene expression [7]
  IDO-1 gene expression: without affecting
IDO-1 gene expression [4]; IFNγ 100 nM, differentiating MSC in osteogenic media 7 days, vs untreated MSC and immune cells
  IDO-1 gene expression: 12 fold
IDO-1 gene expression [4]; 14th day
  increase in IDO-1 expression: 13 fold
IDO-1 gene expression [4]; after 7 days
  increase in IDO-1 expression: 36 fold
[3]; IFNγ 100 ng/ml, one week of osteogenic differentiation, vs vehicle
  mineralization (alizarin red staining): higher levels of mineralization
IDO-1 [8]
  kynurenine/tryptophan ratio (tryptophan degradation): higher kynurenine/tryptophan ratio
